Read-outs that look alike come from different tables or passages of the source.
Columns and labels:
[1] = target: cap-dependent translation of luciferase mRNA in reticulocyte lysate; experiment: Inhibition of cap-dependent translation in vitro by free cap analogs; assay type: biochemical, rabbit
Experimental: In vitro translation reactions were performed in 12.5 μl for 60 min at 30° C. under conditions favorable for cap-dependent translation. In some cases, the reaction mixture was incubated for 60 min at 30° C. prior to adding the dinucleotide cap analog (inhibitor) and m2^7,3′-OGppG-capped luciferase mRNA to start translation. In other cases, to analyze biological stability, the cap analog was incubated in the translation mixture for 60 min at 30° C. prior to adding the luciferase mRNA to start translation. A typical reaction mixture contained 56% reticulocyte lysate, the 20 “standard” amino acids (0.01 mM each), MgCl2 (1.2 mM), potassium acetate (170 mM), RiboLock Ribonuclease Inhibitor (0.32 U/μl), cap analog solution ( 1/10 of total reaction volume), and m2^7,3′-OGpppG-capped luciferase RNA. […] Reactions were performed with cap analog concentrations ranging from 0.12 to 100 μM. Luciferase activity was measured in a luminometer. […] The program OriginPro8 (OriginLab) was used for curve fitting with the equation qLUC=Z/(1+I/IC50)+N, where qLUC is the activity of luciferase synthesized in the presence of cap analog, Z is the activity of luciferase synthesized in the absence of cap analog, N is the activity of luciferase synthesized in a cap-independent manner, and I is the cap analog concentration.
Two type of experiments were carried out. In one set of experiments (condition A), a cap analog was added to the translation system together with luciferase mRNA. In the other set of experiments (condition B), the cap analog was incubated in the translation system for 60 min before addition of mRNA. […] There was a correlation between the resistance to hydrolysis by DcpS and the stability of analogs in the translation system.

Human DcpS = target: T1, Human DcpS (Homo sapiens, UniProt Q96C86); experiment: Assay of susceptibility to DcpS (RP HPLC); assay type: biochemical
T1 construct: made in house; host or cells: Escherichia coli
T1 sequence (Q96C86 1-337): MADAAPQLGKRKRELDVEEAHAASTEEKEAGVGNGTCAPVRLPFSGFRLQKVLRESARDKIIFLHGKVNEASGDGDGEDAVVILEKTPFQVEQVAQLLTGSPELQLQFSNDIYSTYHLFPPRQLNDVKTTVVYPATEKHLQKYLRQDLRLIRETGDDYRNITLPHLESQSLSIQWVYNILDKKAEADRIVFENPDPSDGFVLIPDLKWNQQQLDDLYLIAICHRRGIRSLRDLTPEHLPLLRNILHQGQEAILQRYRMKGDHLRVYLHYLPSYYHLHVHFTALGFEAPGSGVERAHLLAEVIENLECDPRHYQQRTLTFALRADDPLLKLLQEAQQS
Experimental: Human DcpS was expressed in Escherichia coli as described in L. Cohen et al., “Nematode m^7GpppG and m3^2,2,7GpppG decapping: activities in Ascaris embryos and characterization of C. elegans scavenger DcpS,” RNA, vol. 10, pp. 1609-1624 (2004). A 15 μM solution of the protein in 20 mM Tris buffer, pH 7.5, containing 50 mM KCl, 0.2 mM EDTA, 1 mM DTT, 0.5 mM PMSF, and 20% glycerol was stored at −80° C. until used. Enzymatic reactions were carried out at 30° C. in 500 μl of 50 mM Tris-HCl, pH 7.9, containing 20 mM MgCl2 and 60 mM (NH4)2SO4. A 40 μM solution of the selected cap analog was treated with 5.0 μl of DcpS for 120 min. At times of 10, 30, 60, and 120 min, a 100-μl sample was collected from the reaction mixture and deactivated by incubation at 90° C. for 2 min. Samples were analyzed without further treatment by analytical RP HPLC with a linear gradient of methanol in 0.1 M KH2PO4, pH 6.0, from 0-50% over 15 min.

eIF4E = eIF4E (Mus musculus, UniProt P63073); experiment: Binding affinity of cap analogs to eIF4E by fluorescence titration; details: equilibrium association constant; for Cap analog/eIF4E affinity (KAS): 20 °C, pH 7.2, ionic strength 150 mM
Experimental: Fluorescence titration measurements were carried out on an LS-50B or LS-55 spectrofluorometer (Perkin Elmer Co.) at 20.0±0.2° C. in 50 mM HEPES/KOH (pH 7.2), 0.5 mM EDTA, and 1 mM DTT, with ionic strength adjusted to 150 mM by addition of KCl. Various cap analogue solutions, of increasing concentration, were added in 1 μl aliquots to 1.4 ml of 0.1 or 0.2 μM protein solutions. Fluorescence intensities were measured with excitation at 280 nm or 295 nm with 2.2 nm bandwidth, and detection at 337 nm with 4 nm bandwidth and a 290-nm cut-off filter. The data were corrected for sample dilution and inner filter effects. Equilibrium association constants (Kas) were determined by fitting the theoretical dependence of fluorescence intensity on cap analog concentration to the experimental data, as otherwise described in A. Niedźwiecka et al., “Biophysical studies of eIF4E cap-binding protein: recognition of mRNA 5′ cap structure and synthetic fragments of eIF4G and 4E-BP1 proteins,” J. Mol. Biol., vol. 312, pp. 615-635 (2002). The concentration of protein was allowed to be a free parameter in the equilibrium equation, to determine the amount of “active” protein. The final Kas was calculated as a weighted average of three to ten independent titrations, with the weights taken as the reciprocals of the squares of the numerical standard deviations. Numerical nonlinear least-square regression analysis was performed using ORGIN 6.0 (Microcal Software Inc., USA).
The binding affinities of eukaryotic eIF4E for various cap analogs were determined by fluorescence quenching. This biophysical test allows one to predict the potential efficacy of cap analogs in translation. Those having higher affinities for eIF4E than the unmodified cap analog (m^7GpppG) are expected to be better recognized by the translational machinery, leading to higher translational efficiencies. They also are expected to compete more effectively with unmodified mRNA when free cap dinucleotides are used to inhibit translation. See generally E. Grudzien-Nogalska et al., “Synthesis of anti-reverse cap analogs (ARCAs) and their applications in mRNA translation and stability,” Methods Enzymol., vol. 431, pp. 203-227 (2007).

[2] = tested on: rabbit reticulocyte lysate system; experiment: In vitro translation efficiency of capped luciferase mRNA with 31-base poly(A) tail, method II transcripts; assay type: biochemical
Experimental: Capped, polyadenylated luciferase mRNAs were synthesized in vitro by PCR from a dsDNA template that contained the SP6 promoter, the 5′-UTR sequence of rabbit β-globin mRNA, the entire firefly luciferase coding region, and 31 adenosine residues. A typical transcription reaction mixture (40 μl) contained SP6 transcription buffer (Fermentas), 0.7 ug of DNA template, 1 U/μl RiboLock Ribonuclease Inhibitor (Fermentas), 0.5 mM each of ATP, CTP, and UTP, 0.1 mM GTP, and 0.5 mM dinucleotide cap analog. The reaction mixture was incubated at 37° C. for 5 min before addition of SP6 RNA polymerase (Fermentas) to a final concentration of 1 U/μl, and incubation then continued for 45 min at 37° C. The reaction mixture was treated with DNase as in Method I. RNA transcripts were purified with NucAway Spin Columns (Ambion). The integrity of transcripts and quantitation was performed as in Method I.
(§1) A micrococcal nuclease-treated rabbit reticulocyte lysate system (Flexi Rabbit Reticulocyte Lysate System, Promega) was used for in vitro translation. Translation reactions were performed in 10 μl for 60 min at 30° C. A typical reaction mixture contained 40% reticulocyte lysate, the 20 “standard” amino acids (0.01 mM each), MgCl2 (1.2 mM), potassium acetate (170 mM), and mRNA (five different concentrations of each transcript, ranging from 0.25 to 4 μg/ml). Luciferase activity was measured in a luminometer (Glomax, Promega). Linear regression was used to fit the data points (luciferase activity versus concentration of mRNA transcript), and translational efficiency was defined as the slope of this line. The relative translational efficiencies of the test mRNAs were compared to that of m^7GpppG-capped luciferase mRNA, the latter being defined as 1.0.

[3] = tested on: rabbit reticulocyte lysate system; experiment: In vitro translation efficiency of capped luciferase mRNA, method I transcripts; assay type: biochemical
Experimental: A DNA template for in vitro transcription was synthesized by PCR from the plasmid SP6p-5′UTR β-globin-LUCiferase. The template contained the SP6 promoter followed by the 5′-UTR sequence of rabbit β-globin mRNA and the entire firefly luciferase mRNA coding region. A typical in vitro transcription reaction mixture (50 μl) contained SP6 transcription buffer (Fermentas, cat. no. EP0131), 2 μg of DNA template, 2 U/μl RiboLock Ribonuclease Inhibitor (Fermentas), 2 mM each of ATP, CTP, and UTP, 0.1 mM GTP, and 1 mM dinucleotide cap analog. The reaction mixture was incubated at 37° C. for 5 min before the addition of SP6 RNA polymerase (Fermentas) to a final concentration of 2 U/μl. After 30 min of incubation at 37° C., GTP was added to a final concentration of 1 mM, and the reaction continued for an additional 90 min. The reaction mixtures were then treated with 1 U of DNase RQ1 (RNAse-free, Promega) per μg of template DNA in transcription buffer at 37° C. for 20 min. RNA transcripts were purified on DEPC-treated Sephadex G-50 spin columns (Pharmacia). The integrity of transcripts was confirmed by electrophoresis on a non-denaturating, 1% agarose gel. Concentrations were determined spectrophotometrically. The transcripts were stored at −80° C. until used.
as §1

[4] = cap analog added together with luciferase mRNA, read-out: Inhibition of in vitro translation (IC50), condition A
[5] = cap analog incubated in translation system 60 min before addition of mRNA, read-out: Inhibition of in vitro translation (IC50), condition B
[6] = 40 μM cap analog, 30° C., up to 120 min

eIF4E, sequence (P63073 28-217 limits assumed): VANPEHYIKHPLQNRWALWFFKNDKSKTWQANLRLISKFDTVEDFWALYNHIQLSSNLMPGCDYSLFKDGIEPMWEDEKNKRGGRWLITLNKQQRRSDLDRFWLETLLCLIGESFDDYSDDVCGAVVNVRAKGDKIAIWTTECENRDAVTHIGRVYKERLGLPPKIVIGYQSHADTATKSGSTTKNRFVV

IC50 [1, 4] [µM] | IC50 [1, 5] [µM] | Susceptibility to DcpS (Human DcpS; [6]) | Cap analog/eIF4E affinity (KAS) (eIF4E) [μM^−1] | In vitro translational efficiency (method II) ([2]; Table 3, relative to m^7GpppG-capped mRNA = 1.0) | Translation efficiency in comparison to m^7GpppG-LUC-(A)31 mRNA, Experiment No. 1 ([2]; experiment 1) | Translation efficiency in comparison to m^7GpppG-LUC-(A)31 mRNA, Experiment No. 2 ([2]; experiment 2) | Translation efficiency in comparison to m^7GpppG-LUC-(A)31 mRNA, Experiment No. 3 ([2]; experiment 3) | Translation efficiency in comparison to m^7GpppG-LUC-(A)31 mRNA, Experiment No. 4 ([2]; experiment 4) | Translation efficiency in comparison to m^7GpppG-LUC-(A)31 mRNA, Experiment No. 5 ([2]; experiment 5) | Translation efficiency in comparison to m^7GpppG-LUC-(A)31 mRNA, Mean ([2]; mean of experiments) | Translation efficiency in comparison with m^7GpppG-LUC mRNA, Experiment No. 1 ([3]; experiment 1) | Translation efficiency in comparison with m^7GpppG-LUC mRNA, Experiment No. 2 ([3]; experiment 2) | Translation efficiency in comparison with m^7GpppG-LUC mRNA, Experiment No. 3 ([3]; experiment 3) | Translation efficiency in comparison with m^7GpppG-LUC mRNA, Experiment No. 4 ([3]; experiment 4) | Translation efficiency in comparison with m^7GpppG-LUC mRNA, Mean ([3]; mean of experiments) | In vitro translational efficiency, method I ([3]; relative to m^7GpppG-capped luciferase mRNA = 1.0) | Susceptibility to DcpS (Human DcpS; Table 3) | Cap analog-eIF4E affinity (KAS) (eIF4E; Table 3) [μM^−1] | SMILES
4.5 ± 0.5 | 3.5 ± 0.9 | resistant | 13.0 ± 0.2 |  |  |  |  |  |  |  |  |  |  |  |  |  |  |  | [BH3-]P(=O)(OP(=O)(O)OCC1OC(n2cnc3c(=O)[nH]c(N)nc32)C(O)C1O)OP(=O)(O)OCC1OC(n2c[n+](C)c3c(=O)[nH]c(N)nc32)C(O)C1O (single isomer, unassigned) [m^7GppBH3pG (D2), m^7GppBH3pG]
3.2 ± 0.3 | 9.2 ± 1.9 | hydrolyzed | 14.5 ± 0.2 |  |  |  |  |  |  |  |  |  |  |  |  |  |  |  | [BH3-]P(=O)(OC[C@H]1O[C@@H](n2cnc3c(=O)[nH]c(N)nc32)[C@H](O)[C@@H]1O)OP(=O)(O)OP(=O)(O)OC[C@H]1O[C@@H](n2c[n+](C)c3c(=O)[nH]c(N)nc32)[C@H](O)[C@@H]1O (single isomer, unassigned) [m^7GpppBH3G (D1), m^7GpppBH3G]
 |  | hydrolyzed | 10.2 ± 0.3 | 1.82 ± 0.20 | 1.98 | 1.66 | 1.61 | 1.77 | 2.08 | 1.82 | 2.53 | 2.92 | 2.96 | 2.50 | 2.73 | 2.73 ± 0.25 | hydrolyzed | 10.2 ± 0.3 | CO[C@H]1[C@@H](O)[C@H]([n+]2cn(C)c3c(=O)[nH]c(N)nc32)O[C@@H]1COP(=O)([O-])OP(=O)(O)OP(=O)(O)OC[C@H]1O[C@@H](n2cnc3c(=O)[nH]c(N)nc32)[C@H](O)[C@@H]1O [m2^7,3′-OGpppG, 7-methyl(3′-O-methyl)GpppG, reference compound]

Reference: patent US8519110B2, “mRNA cap analogs” (Board of Supervisors of Louisiana State University And …, priority 2008, dated 2013)
